The results in this text go back to patent US12384770B2, “Heterocyclic compound” (Takeda Pharmaceutical Company Limited, priority 2019, dated 2025).

The first experiment has as its target T1, HDAC6 enzyme (Homo sapiens, UniProt Q9UBN7).
T1 construct: HDAC6 enzyme prepared by transducing full length HDAC6 gene into Sf-9 insect cells; GST; purchased SignalChem; host or cells: Sf-9 insect cells
T1 sequence (Q9UBN7 1-1215): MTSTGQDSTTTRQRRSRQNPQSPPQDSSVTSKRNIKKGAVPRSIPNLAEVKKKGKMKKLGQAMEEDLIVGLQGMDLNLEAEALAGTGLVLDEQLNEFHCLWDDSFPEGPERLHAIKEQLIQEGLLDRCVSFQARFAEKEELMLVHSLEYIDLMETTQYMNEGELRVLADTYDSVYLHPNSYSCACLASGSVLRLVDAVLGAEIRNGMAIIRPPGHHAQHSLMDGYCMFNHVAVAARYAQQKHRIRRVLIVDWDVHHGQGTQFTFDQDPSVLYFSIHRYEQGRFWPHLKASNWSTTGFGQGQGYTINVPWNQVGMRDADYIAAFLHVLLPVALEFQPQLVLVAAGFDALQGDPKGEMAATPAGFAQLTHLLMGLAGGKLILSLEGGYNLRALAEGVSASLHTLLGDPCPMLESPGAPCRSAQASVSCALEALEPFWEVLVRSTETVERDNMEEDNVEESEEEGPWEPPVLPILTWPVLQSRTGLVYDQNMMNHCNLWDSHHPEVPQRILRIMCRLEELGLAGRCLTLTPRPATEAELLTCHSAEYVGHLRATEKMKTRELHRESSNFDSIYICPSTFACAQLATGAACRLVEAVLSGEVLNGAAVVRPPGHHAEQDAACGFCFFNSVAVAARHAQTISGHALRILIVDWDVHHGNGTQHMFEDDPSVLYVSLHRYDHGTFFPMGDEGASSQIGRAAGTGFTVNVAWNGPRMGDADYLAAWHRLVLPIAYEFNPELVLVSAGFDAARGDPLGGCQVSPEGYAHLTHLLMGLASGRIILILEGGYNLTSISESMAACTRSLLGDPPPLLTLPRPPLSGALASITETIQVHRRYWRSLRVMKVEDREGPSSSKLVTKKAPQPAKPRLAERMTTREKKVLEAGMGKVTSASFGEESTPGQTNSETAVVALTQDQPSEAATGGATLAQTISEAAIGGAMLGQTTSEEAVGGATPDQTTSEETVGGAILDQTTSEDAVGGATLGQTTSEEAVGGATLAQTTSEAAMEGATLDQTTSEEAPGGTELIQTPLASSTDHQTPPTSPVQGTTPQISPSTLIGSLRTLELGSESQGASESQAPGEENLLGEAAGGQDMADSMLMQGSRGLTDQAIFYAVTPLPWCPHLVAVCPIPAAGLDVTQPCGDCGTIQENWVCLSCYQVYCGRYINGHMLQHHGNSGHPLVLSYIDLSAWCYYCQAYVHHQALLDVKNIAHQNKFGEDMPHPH
Nature of the experiment: HDAC6 enzyme inhibitory assay (HDAC-Glo I/II Assay kit). Type of experiment: biochemical. The conditions noted are these: wells without enzyme = 100% inhibition. As for the experimental part:
Experimental Example 1 HDAC6 Enzyme Inhibitory Assay
HDAC6 enzyme prepared by transducing full length HDAC6 gene into Sf-9 insect cells and purifying by GST affinity column were purchased from SignalChem. Using this enzyme, HDAC6 enzyme inhibitory activity of the compound of the present invention were evaluated. Enzymes were used after preserved at −70° C. HDAC6 enzyme inhibitory activity of the compound of the present invention was measured using HDAC-Glo™ I/II Assay kit (Promega) according to the following experimental method. The test compound diluted with assay buffer (24 mM Tris-HCl (pH 7.5), 1 mM MgCl2, 0.35 mM KCl, 135 mM NaCl, 0.6 mM Glutathione, 0.01% Tween-20) was added to a 384-well plate by each 2 μL. Then, HDAC6 enzyme solution diluted with assay buffer was added thereto by each 4 μL, and the plate was incubated at room temperature for 60 min. After incubated, HDAC substrate-Developer solution prepared according to Promega protocol attached to the assay kit was added to the 384-well plate by each 2 μL, and the enzyme reaction was started. After reacting at room temperature for 20 min, luminescence level was measured using plate reader Envision (PerkinElmer). The inhibitory activity of each compound of Example was calculated as a relative activity value when luminescence level in wells without enzyme is considered as 100% inhibition.
Regarding `O=C1c2cc(-c3nnc(C(F)F)o3)ccc2CN1[C@H](c1cnccn1)[C@@H](O)c1ccc(F)c(F)c1` (single isomer, unassigned) [Example 86, 6-[5-(difluoromethyl)-1,3,4-oxadiazol-2-yl]-2-[(1R*,2S*)-2-(3,4-difluorophenyl)-2-hydroxy-1-(pyrazin-2-yl)ethyl]-2,3-dihydro-1H-isoindol-1-one], the “HDAC6 inhibitory rate (%) (10 μM)” value is given as 100%.

For `O=C1c2cc(-c3nnc(C(F)F)o3)ccc2CN1[C@H](c1cccnn1)[C@@H](O)c1ccc(F)c(F)c1` (single isomer, unassigned) [Example 109, 6-[5-(difluoromethyl)-1,3,4-oxadiazol-2-yl]-2-[(1R*,2S*)-2-(3,4-difluorophenyl)-2-hydroxy-1-(pyridazin-3-yl)ethyl]-2,3-dihydro-1H-isoindol-1-one], the “HDAC6 inhibitory rate (%) (10 μM)” value worked out at 100%.

The experiment is the same for the next values; noted with them: wells without enzyme = 100% inhibition, 10 µM.
For `O=C1c2cc(-c3nnc(C(F)F)o3)ccc2CN1[C@H](C1CC1)[C@@H](O)c1cccc(F)n1` (single isomer, unassigned) [Example 80, 2-[(1R*,2R*)-1-cyclopropyl-2-(6-fluoropyridin-2-yl)-2-hydroxyethyl]-6-[5-(difluoromethyl)-1,3,4-oxadiazol-2-yl]-2,3-dihydro-1H-isoindol-1-one], the “HDAC6 inhibitory rate (%) (10 μM)” value came to 100%.

On to `O=C1c2cc(-c3nnc(C(F)F)o3)ccc2CN1[C@H](c1ccccc1)[C@@H](O)c1ccccn1` (single isomer, unassigned) [Example 48, 6-[5-(difluoromethyl)-1,3,4-oxadiazol-2-yl]-2-[(1R*,2R*)-2-hydroxy-1-phenyl-2-(pyridin-2-yl)ethyl]-2,3-dihydro-1H-isoindol-1-one], for which the “HDAC6 inhibitory rate (%) (10 μM)” value worked out at 100%.

For the compound `O=C1c2cc(-c3nnc(C(F)F)o3)ccc2CN1[C@H](c1ccc(F)cc1)[C@@H](O)c1cccnc1` (single isomer, unassigned) [Example 52, 6-[5-(difluoromethyl)-1,3,4-oxadiazol-2-yl]-2-[(1R*,2S*)-1-(4-fluorophenyl)-2-hydroxy-2-(pyridin-3-yl)ethyl]-2,3-dihydro-1H-isoindol-1-one], the “HDAC6 inhibitory rate (%) (10 μM)” value is recorded as 100%.

The experiment is the same for the next values; noted with them: wells without enzyme = 100% inhibition, read-out: HDAC6 inhibitory rate (%) (10 μM).
In the case of `O=C1c2cc(-c3nnc(C(F)F)o3)ccc2CN1[C@H](c1ccccn1)[C@@H](O)c1ccc(F)cc1` (single isomer, unassigned) [Example 36, 6-[5-(difluoromethyl)-1,3,4-oxadiazol-2-yl]-2-[(1R*,2S*)-2-(4-fluorophenyl)-2-hydroxy-1-(pyridin-2-yl)ethyl]-2,3-dihydro-1H-isoindol-1-one], the inhibition at 10 µM is 101%.

Regarding `O=C1c2cc(-c3nnc(C(F)F)o3)ccc2CN1[C@H](c1cnccn1)[C@@H](O)c1ccccc1` (single isomer, unassigned) [Example 127, 6-[5-(difluoromethyl)-1,3,4-oxadiazol-2-yl]-2-[(1R*,2S*)-2-hydroxy-2-phenyl-1-(pyrazin-2-yl)ethyl]-2,3-dihydro-1H-isoindol-1-one], the inhibition at 10 µM was 99%.

For the compound `O=C1c2cc(-c3nnc(C(F)F)o3)ccc2CN1[C@H](c1cccc(F)n1)[C@@H](O)c1ccc(F)cn1` (relative stereo) [Example 125, 6-[5-(difluoromethyl)-1,3,4-oxadiazol-2-yl]-2-[(1R*,2R)-2-(5-fluoropyridin-2-yl)-1-(6-fluoropyridin-2-yl)-2-hydroxyethyl]-2,3-dihydro-1H-isoindol-1-one], the inhibition at 10 µM stood at 101%.

`O=C1c2cc(-c3nnc(C(F)F)o3)ccc2CN1[C@H](c1ccc(F)cc1)[C@@H](O)c1ccc(C(F)(F)F)nc1` (relative stereo) [Example 55, 6-[5-(difluoromethyl)-1,3,4-oxadiazol-2-yl]-2-{(1R*,2S)-1-(4-fluorophenyl)-2-hydroxy-2-[6-(trifluoromethyl)pyridin-3-yl]ethyl}-2,3-dihydro-1H-isoindol-1-one]: the inhibition at 10 µM is 98%.

For the compound `O=C1c2cc(-c3nnc(C(F)F)o3)ccc2CN1[C@H](c1cc(F)c(F)c(F)c1)[C@@H](O)c1ccccn1` (racemic) [Example 15, 6-[5-(difluoromethyl)-1,3,4-oxadiazol-2-yl]-2-[(1RS,2RS)-2-hydroxy-2-(pyridin-2-yl)-1-(3,4,5-trifluorophenyl)ethyl]-2,3-dihydro-1H-isoindol-1-one], the inhibition at 10 µM was determined as 99%.

For the compound `O=C1c2cc(-c3nnc(C(F)F)o3)ccc2CN1[C@H](c1cccnn1)[C@@H](O)c1ccc(Cl)cc1` (relative stereo) [Example 110, 2-[(1R*,2S)-2-(4-chlorophenyl)-2-hydroxy-1-(pyridazin-3-yl)ethyl]-6-[5-(difluoromethyl)-1,3,4-oxadiazol-2-yl]-2,3-dihydro-1H-isoindol-1-one], the inhibition at 10 µM was determined as 100%.

For `O=C1c2cc(-c3nnc(C(F)F)o3)ccc2CN1[C@H](c1ccccn1)[C@H](O)c1ccccn1` (racemic) [Example 135, 6-[5-(difluoromethyl)-1,3,4-oxadiazol-2-yl]-2-[(1RS,2SR)-2-hydroxy-1,2-di(pyridin-2-yl)ethyl]-2,3-dihydro-1H-isoindol-1-one], the inhibition at 10 µM turned out to be 99%.

As to `N#Cc1cccc([C@H]([C@@H](O)c2ccccc2)N2Cc3ccc(-c4nnc(C(F)F)o4)cc3C2=O)c1` (racemic) [Example 40, 3-[(1RS,2SR)-1-{6-[5-(difluoromethyl)-1,3,4-oxadiazol-2-yl]-1-oxo-1,3-dihydro-2H-isoindol-2-yl}-2-hydroxy-2-phenylethyl]benzonitrile], the inhibition at 10 µM stood at 100%.

Consider `O=C1c2cc(-c3nnc(C(F)F)o3)ccc2CN1[C@H](c1cccc(F)c1)[C@@H](O)c1ccc(F)cc1` (racemic) [Example 21, 6-[5-(difluoromethyl)-1,3,4-oxadiazol-2-yl]-2-[(1RS,2SR)-1-(3-fluorophenyl)-2-(4-fluorophenyl)-2-hydroxyethyl]-2,3-dihydro-1H-isoindol-1-one], for which the inhibition at 10 µM came to 100%.

As for `O=C1c2cc(-c3nnc(C(F)F)o3)ccc2CN1[C@H](c1ccccc1)[C@@H](O)c1ccc(F)cc1` (racemic) [Example 22, 6-[5-(difluoromethyl)-1,3,4-oxadiazol-2-yl]-2-[(1RS,2SR)-2-(4-fluorophenyl)-2-hydroxy-1-phenylethyl]-2,3-dihydro-1H-isoindol-1-one], the inhibition at 10 µM was found to be 99%.

For `O=C1c2cc(-c3nnc(C(F)F)o3)ccc2CN1[C@H](c1ccc(F)cn1)[C@H](O)c1ccccn1` (racemic) [Example 144, 6-[5-(difluoromethyl)-1,3,4-oxadiazol-2-yl]-2-[(1RS,2SR)-1-(5-fluoropyridin-2-yl)-2-hydroxy-2-(pyridin-2-yl)ethyl]-2,3-dihydro-1H-isoindol-1-one], the inhibition at 10 µM was found to be 100%.

With `O=C1c2cc(-c3nnc(C(F)F)o3)ccc2CN1[C@H](C1CC1)[C@@H](O)c1ccc(Cl)cn1` (racemic) [Example 65, 2-[(1RS,2RS)-2-(5-chloropyridin-2-yl)-1-cyclopropyl-2-hydroxyethyl]-6-[5-(difluoromethyl)-1,3,4-oxadiazol-2-yl]-2,3-dihydro-1H-isoindol-1-one], the inhibition at 10 µM came out at 98%.

For `O=C1c2cc(-c3nnc(C(F)F)o3)ccc2CN1[C@H](C1CCC(F)(F)CC1)[C@@H](O)c1ccccn1` (racemic) [Example 81, 2-[(1RS,2RS)-1-(4,4-difluorocyclohexyl)-2-hydroxy-2-(pyridin-2-yl)ethyl]-6-[5-(difluoromethyl)-1,3,4-oxadiazol-2-yl]-2,3-dihydro-1H-isoindol-1-one], the inhibition at 10 µM is 100%.
